In ChEMBL document CHEMBL1138874, “Design and synthesis of a series of novel pyrazolopyridines as HIF-1alpha prolyl hydroxylase inhibitors” (Bioorg Med Chem Lett, 2006):

System: HEK293
Test: cells
Settings: Homo sapiens

`O=C(O)c1cnn(-c2ccc(COCc3ccc(Cl)cc3)cn2)c1` gave an EC50 of 7.4 µM.
For `O=C(O)c1cnn(-c2ccc(COCc3cccc(Cl)c3)cn2)c1`, the EC50 was 3.8 µM.
In the case of `O=C(O)c1cnn(-c2ccc(COCc3ccccc3)cn2)c1`, the EC50 is reported as 25 µM.
Work on `COc1ccc(COCc2ccc(-n3cc(C(=O)O)cn3)nc2)cc1` yielded an EC50 of 1 µM.
With `N#Cc1ccccc1-c1ccc(COCc2ccc(-n3cc(C(=O)O)cn3)nc2)cc1` the EC50 was > 100 µM.
With `COc1cccc(COCc2ccc(-n3cc(C(=O)O)cn3)nc2)c1` the EC50 was > 100 µM.
`O=C(O)c1cnn(-c2ccc(COCc3cccc(C(F)(F)F)c3)cn2)c1` showed an EC50 of 11 µM.
